Data published in ChEMBL document CHEMBL3868598, “Synthesis, structure-activity relationship and molecular docking of 3-oxoaurones and 3-thioaurones as acetylcholinesterase and butyrylcholinesterase inhibitors” (Bioorg Med Chem, 2017).

What was measured:
Acetylcholinesterase = Acetylcholinesterase (Homo sapiens, UniProt P22303); experiment: Inhibition of acetylcholinesterase (unknown origin) using acetylthiocholine iodide as substrate incubated for 10 mins followed by substrate addition measured after 20 mins by UV-Vis spectrophotometric analysis
Cholinesterase = Cholinesterase (Homo sapiens, UniProt P06276); experiment: Inhibition of butyrylcholinesterase (unknown origin) using butyrylthiocholine chloride as substrate incubated for 10 mins followed by substrate addition measured after 20 mins by UV-Vis spectrophotometric analysis
Cholinesterase, sequence (P06276 whole entry): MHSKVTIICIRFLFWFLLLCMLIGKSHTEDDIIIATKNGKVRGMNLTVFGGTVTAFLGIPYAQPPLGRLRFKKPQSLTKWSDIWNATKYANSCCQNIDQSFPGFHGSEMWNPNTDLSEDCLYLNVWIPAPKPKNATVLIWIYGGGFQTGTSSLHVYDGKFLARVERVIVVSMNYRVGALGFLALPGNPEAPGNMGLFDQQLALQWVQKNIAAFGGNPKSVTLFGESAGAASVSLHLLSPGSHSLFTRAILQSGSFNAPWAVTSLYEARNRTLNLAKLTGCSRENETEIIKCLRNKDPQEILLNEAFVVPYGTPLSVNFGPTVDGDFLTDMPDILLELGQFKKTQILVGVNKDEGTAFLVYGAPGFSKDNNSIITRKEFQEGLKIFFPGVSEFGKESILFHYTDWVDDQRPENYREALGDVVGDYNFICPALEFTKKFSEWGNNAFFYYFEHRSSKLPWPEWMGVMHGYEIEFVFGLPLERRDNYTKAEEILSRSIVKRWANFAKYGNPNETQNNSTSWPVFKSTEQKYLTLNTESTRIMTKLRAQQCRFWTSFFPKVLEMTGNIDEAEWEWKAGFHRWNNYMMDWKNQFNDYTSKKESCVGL

Acetylcholinesterase, sequence (P22303 whole entry): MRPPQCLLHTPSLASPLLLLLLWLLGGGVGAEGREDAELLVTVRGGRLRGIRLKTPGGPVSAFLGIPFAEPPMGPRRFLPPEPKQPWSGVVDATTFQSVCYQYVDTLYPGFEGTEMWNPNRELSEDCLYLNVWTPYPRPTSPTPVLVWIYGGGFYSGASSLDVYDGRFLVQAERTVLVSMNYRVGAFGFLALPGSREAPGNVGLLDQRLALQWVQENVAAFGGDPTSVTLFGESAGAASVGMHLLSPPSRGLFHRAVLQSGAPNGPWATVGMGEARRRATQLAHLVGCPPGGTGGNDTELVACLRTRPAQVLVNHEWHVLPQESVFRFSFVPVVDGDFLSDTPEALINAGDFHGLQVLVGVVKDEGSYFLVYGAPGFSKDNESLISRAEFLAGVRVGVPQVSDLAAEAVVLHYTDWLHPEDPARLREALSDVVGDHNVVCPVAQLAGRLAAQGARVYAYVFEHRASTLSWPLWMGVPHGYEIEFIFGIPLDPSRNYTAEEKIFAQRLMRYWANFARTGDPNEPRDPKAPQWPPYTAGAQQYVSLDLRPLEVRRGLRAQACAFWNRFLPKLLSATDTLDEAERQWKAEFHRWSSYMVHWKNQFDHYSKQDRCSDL

Compound | IC50 (Acetylcholinesterase) | IC50 (Cholinesterase)
CC(C)Cc1ccc(/C=C2\Oc3ccccc3C2=O)cc1 | 0.98 µM | 1.02 µM
S=C1/C(=C/c2ccccc2)Oc2ccccc21 | 6.39 µM | 
Fc1ccc(/C=C2\Oc3ccccc3C2=S)cc1 |  | 5.27 µM
COc1ccc(/C=C2\Oc3ccccc3C2=O)cc1 [4'-METHOXY-AURONE] | 1.26 µM | 
